Test results from patent publication US10940139B2, “Compounds that interact with the Ras superfamily for the treatment of cancers, inflammatory diseases, rasopathies, and fibrotic disease” (Shy Therapeutics LLC, priority 2017, dated 2021).

Target: KRas G12D/Q61H double mutant (Homo sapiens (Human), UniProt P01116, G12D/Q61H)
Test: Ras GTP binding domain inhibition assay (labeled GTP)
Conditions: 20 μM compound; KRas G12D/Q61H double mutant; read-out: % Inhibition at 20 μM of K-Ras mutant and wild-type protein, KRas G12D Q61H
Experimental: Buffer-I: • 50 mM Tris, pH 7.5 • 150 mM NaCl (optional) • 1 mM MgCl2 • 1 mM DTT. • KRas G12D mutant protein was expressed as a His-tagged protein. Purified His-KRas G12D protein was diluted in buffer-I to a final concentration of 3-10 μg/ml. • 200 μl of the diluted His-KRas G12D protein was added to a nickel coated 96 well plate and incubated overnight at 4° C. • The next day, wells were washed 3× in 200 μl of Buffer-I. • Then 200 μl of Buffer-I were added to each well in the presence of 1% DMSO. • Tested compounds were added to the protein-coated wells at a concentration of 20 μM, and incubated for 3 hours at room temperature. While performing IC50 measurements a serial dilution of all tested concentrations was prepared.
Then 22 μl of Cy3-GTP or Cy5-GTP was added to each well. The labeled GTP was incubated for 45 min. at room temperature. • Following GTP incubation, wells were washed 3× in Buffer-I, and 200 μl of Buffer-I were added to each well. • Following washes, the amount of bound labeled-GTP was measured with an Eppendorf AF2200 plate reader.
By substituting KRas G12D mutant protein with KRas G12C mutant, KRas wild type, KRas Q61H mutant, KRas G12D/Q61H double mutant or KRas G12C/Q61H double mutant under the assay conditions described above, KRas G12C mutant KRas wild type, KRas Q61H mutant, KRas G12D/Q61H double mutant and KRas G12C/Q61H double mutant inhibition, respectively, were each determined.

Chain of KRas G12D/Q61H double mutant (P01116-2 other isoform, or with tags, fused parts or gaps G12D/Q61H): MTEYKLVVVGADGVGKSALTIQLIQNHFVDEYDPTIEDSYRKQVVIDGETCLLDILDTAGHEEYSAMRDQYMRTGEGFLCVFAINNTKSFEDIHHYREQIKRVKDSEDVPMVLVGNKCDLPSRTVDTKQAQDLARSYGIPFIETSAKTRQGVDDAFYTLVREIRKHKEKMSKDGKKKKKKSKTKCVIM

Structure (SMILES)	inhibition at 20 µM [%]
C#CCN(Cc1ccc(C)cc1)c1ccc(C#N)cc1[N+](=O)[O-]	1 to 25
COc1ccc(OCCCn2c(C(F)(F)F)c(Br)cnc2=O)cc1	25 to 50
CCN(CC(=O)Nc1ccccc1OC)Cc1coc(-c2ccc(C)cc2C)n1	25 to 50
Cc1cc(C)c2c(N)c(C(=O)OCc3ccc(C(=O)N4CCCC4)cc3)sc2n1	1 to 25
CC(C)(C)c1noc(COc2ccc(C(=O)c3ccc(F)cc3)cc2)n1	25 to 50
CCOC(=O)c1c(-c2ccc(OC)cc2)oc2ccc(OCC=C(C)C)cc12	25 to 50
CC1CCC(NS(=O)(=O)CC(=O)N2CCCC2Cc2ccccc2Cl)CC1 (centres unmarked)	25 to 50
Cc1ccc(C)c(-c2csc(C3CN(Cc4ccccc4)CCO3)n2)c1 (centres unmarked)	25 to 50
CCCOc1nc2ccccc2nc1N1CCN(c2ccccc2F)CC1	25 to 50
COc1ccc2c(c1)C(N(Cc1ccccc1)Cc1nc(CC(C)C)no1)CCO2 (centres unmarked)	25 to 50
CCOc1ccccc1N1CC(c2nc3ccccc3n2CCC2CCCCC2)CC1=O (centres unmarked)	25 to 50
COc1ccc(C(C)=O)cc1CC(C(=O)c1ccc(C2CCCCC2)cc1)N(C)C (centres unmarked)	25 to 50
CCOc1ccc(-c2nc(CSc3nc4ccccc4n3CCOC)cs2)cc1OC	25 to 50
CCn1c(SCc2csc(-c3ccc(OC)c(OC)c3)n2)nc2ccccc21	25 to 50
CCCCOCCN(C(=O)c1ccn(-c2ccccc2)n1)c1ccccc1Br	25 to 50
COC(=O)c1ccc(CN2CCN(c3cccc(C(F)(F)F)c3)CC2)cc1	25 to 50
COc1cc(CN(C)C(=O)Cc2ccc(Br)cc2)ccc1OCc1ccccc1	1 to 25

Same assay, conditions: 20 μM compound; read-out: % Inhibition at 20 μM KRas G12D Q61H

Structure (SMILES)	inhibition at 20 µM [%]
C#Cc1cccc(N(CC(=O)N2CCOCC2)C(=O)c2ccc(COc3ccccc3F)o2)c1	1 to 25
COc1ccc(NC(=O)CN(C)Cc2coc(-c3cccs3)n2)cc1	25 to 50
CCc1noc(CNc2cc(C(=O)OC)cc(C(F)(F)F)c2)n1	25 to 50
Nc1nc(O)c2scc(C(=O)N3CCN(c4ccccc4)CC3)c2n1	25 to 50
CC(=O)Nc1cccc(C(C)N(Cc2ccccc2)Cc2nc(-c3ccc(Cl)cc3)no2)c1 (centres unmarked)	1 to 25
O=C(Nc1nnc(-c2ccccn2)[nH]1)C1CC(=O)N(C2CCCC2)C1 (centres unmarked)	25 to 50
Cc1cccc(Oc2ccc(S(=O)(=O)N3CCCCC3)cc2NCc2cc(C)on2)c1	1 to 25
COc1cc(C(=O)Nc2nnc(-c3ccccn3)[nH]2)ccc1OCC(N)=O	25 to 50
FC(F)(F)c1ccnc(N2CCN(CCc3ccncc3)CC2)n1	25 to 50
Fc1ccc(OCc2nnc(SCCCc3ccccc3)o2)cc1	25 to 50
CN(C(=O)c1ccc(COc2ccc(Br)cc2)o1)C1CCS(=O)(=O)C1 (centres unmarked)	1 to 25
O=C(CCNS(=O)(=O)c1ccc2c(c1)CCCC2)Nc1nnc(-c2ccccn2)[nH]1	25 to 50
COc1ccccc1N1CCN(C(=O)c2csc3c(O)nc(-c4ccccn4)nc23)CC1 [drawing 2712]	25 to 50
c1ccc(-c2csc3nc(-c4ccccn4)nc(NCc4ccccn4)c23)cc1	25 to 50
O=C(Nc1nnc(-c2ccccn2)[nH]1)C1CCCN(C(=O)c2ccoc2)C1 (centres unmarked)	25 to 50
CCCOc1ccc(OCCOC(=O)c2cccnc2SCCOc2ccc(OCCC)cc2)cc1	25 to 50
COc1cc2c(cc1OC)CCN(C(=O)c1csc3c(O)nc(-c4ccccn4)nc13)CC2 [drawing 2691]	51 to 75
O=C(CCc1ccccn1)Nc1nnc(-c2ccccn2)[nH]1	25 to 50
O=C(c1csc2c(O)nc(-c3ccccn3)nc12)N1CCN(c2cccc(O)c2)CC1	25 to 50
O=C(Nc1nnc(-c2ccccn2)[nH]1)c1cc(Cl)sc1Cl	25 to 50
COc1ccc(COCC(=O)Nc2ccnc(-c3ccccn3)n2)cn1 [drawing 2699]	25 to 50
O=C(c1csc2c(O)nc(-c3ccccn3)nc12)N1CCNC(c2cccc(Cl)c2)C1 (centres unmarked)	25 to 50
O=c1[nH]c(-c2ncccn2)nc2cc(-c3cccc(Cl)c3)sc12	25 to 50

Structure (SMILES)	inhibition at 20 µM [%]
CC(=O)N1CCC(C(=O)Nc2nnc(-c3ccccn3)[nH]2)CC1	25 to 50
CCCn1c(CNc2ccccc2OCCOC)nc2cc(S(=O)(=O)N(C)C)ccc21	1 to 25
Cc1cccc2c(=O)[nH]c(-c3ccccn3)nc12	25 to 50
CCCCCCNC(=O)c1cc(S(=O)(=O)N(C)C)ccc1N1CCOCC1	1 to 25
CC(C)Cn1cnnc1C1CCCN1c1ccc(C#N)c(C(F)(F)F)c1 (centres unmarked)	25 to 50
CCc1cc(NNC(=O)c2ccc(C)s2)nc(-c2ccccn2)n1	25 to 50
O=C(c1csc2c(O)nc(-c3ccccn3)nc12)N1CCN(c2ccc(Cl)cc2)CC1	25 to 50
CCOC(=O)C1CCCC1N(Cc1cccc([N+](=O)[O-])c1)C1CC1 (centres unmarked)	25 to 50
CC(OCC1CC1)C(=O)Nc1nnc(-c2ccccn2)[nH]1 (centres unmarked)	25 to 50
Cn1c(CNCc2ccccc2OCc2ccccc2)nc2ccccc21	25 to 50
O=C(Nc1ccc(N2CCOCC2)cc1)c1ccccc1OCCOc1ccccc1	1 to 25
Cc1noc(C)c1CN(C(=O)c1ccc(COc2ccc(F)cc2)o1)c1ccccc1	25 to 50
CCC1COCCN1c1nc(-c2ccccn2)nc2scc(-c3ccccc3)c12 (centres unmarked)	25 to 50
Cc1cc(C)n(CCCNC(=O)c2cc(S(=O)(=O)N3CCOCC3)ccc2N2CCCC2)n1	25 to 50
COc1ccccc1CN(Cc1cccs1)C(=O)c1ccc(Br)o1	25 to 50
OC(CNc1nc(-c2ccccn2)nc2c1CCC2)COCC1CC1 (centres unmarked)	25 to 50
COc1cc(COCC(=O)Nc2ccnc(-c3ccccn3)n2)ccn1 [drawing 2813]	25 to 50
Cc1nc(-c2ccccn2)sc1C(=O)NCCNc1cnccn1	25 to 50
O=C(NCc1ccccn1)c1csc(-c2ccc(Cl)cc2)n1	1 to 25
CC(C)Cc1cc(C(=O)Nc2cc(-c3cccnc3)n[nH]2)[nH]n1	1 to 25
COc1ccc2c(c1)CCC2C(=O)Nc1nc(-c2ccccn2)nc2sccc12 (centres unmarked) [drawing 2818]	1 to 25
CN(C)C(=O)CCN1CCOC(c2nc(-c3ccccc3)cs2)C1 (centres unmarked)	1 to 25

Same assay, conditions: 20 μM; read-out: KRas G12D Q61H % Inh.

Structure (SMILES)	inhibition at 20 µM [%]
CC(C)N(Cc1nnc(-c2ccc(Cl)cc2Cl)o1)c1ccc(F)cc1	25 to 50
O=C(Nc1nnc(-c2ccccn2)[nH]1)c1ccc(=O)[nH]n1 [drawing 2562]	51 to 75
O=C(Nc1nc(-c2ccccn2)cs1)C1COc2ccccc2O1 (centres unmarked) [drawing 2566]	51 to 75
CSc1nc(C2CC2)cc(C(=O)NCCc2ccc(S(=O)(=O)NC(=O)c3cc(C4CC4)nc(SC)c3C#N)cc2)c1C#N [drawing 2634]	51 to 75
Oc1nc(-c2ccccn2)nc2c1CCCN2 [drawing 2637]	25 to 50
O=C(COc1ccc2c(c1)CCC2)Nc1nnc(-c2ccccn2)[nH]1 [drawing 2526]	51 to 75
O=C(CCCc1nc2ccccc2s1)Nc1nnc(-c2ccccn2)[nH]1	51 to 75
O=C(COc1ccc(F)cc1F)Nc1nnc(-c2ccccn2)[nH]1 [drawing 2458]	51 to 75
O=C(Cc1ccccc1F)Nc1nnc(-c2ccccn2)[nH]1	51 to 75
Cc1cccc(OCC(=O)Nc2nnc(-c3ccccn3)[nH]2)c1 [drawing 2555]	51 to 75
Cc1cccc(C(=O)Nc2nnc(-c3ccccn3)[nH]2)n1 [drawing 2524]	51 to 75
CC(C)c1noc(CCC(=O)Nc2nnc(-c3ccccn3)[nH]2)n1 [drawing 2486]	51 to 75
O=C(Nc1nnc(-c2ccccn2)[nH]1)C1CC1c1ccc(F)cc1 (centres unmarked) [drawing 2520]	51 to 75
N#Cc1ccc(OCC(=O)Nc2nnc(-c3ccccn3)[nH]2)cc1	51 to 75
COC(=O)C(C)CN(Cc1ccccc1)c1nc(C(F)(F)F)ccc1C#N (centres unmarked) [drawing 2631]	25 to 50
CC(C)NC(=O)Nc1cccc(C(=O)Nc2nnc(-c3ccccn3)[nH]2)c1 [drawing 2451]	51 to 75
CCN(CC)C(=O)c1sc2[nH]c(-c3ccccn3)nc(=O)c2c1C [drawing 2589]	51 to 75
CCCOc1ccc2ccccc2c1CN(C)S(=O)(=O)N1CC(C)OC(C)C1 (centres unmarked) [drawing 2626]	25 to 50
COCCCn1ccc(Nc2cc(C)nc(-c3ccccn3)n2)n1 [drawing 2606]	51 to 75
CCC(C)(C)c1ccc(OCCCC(=O)NC(C(=O)OC)C(C)C)c(C(C)(C)CC)c1 (centres unmarked) [drawing 2619]	25 to 50
CNC(=O)c1sc2[nH]c(-c3ccccn3)nc(=O)c2c1C [drawing 2584]	25 to 50
COc1ccc(CN(CC[S+]([O-])c2cc(Cl)ccc2Cl)C2CC2)cc1 (centres unmarked) [drawing 2625]	25 to 50
CCOc1cc(C(=O)Oc2c(C)ccc(C)c2C)cc(OCC)c1OCC [drawing 2622]	51 to 75

Same assay, conditions: read-out: KRas G12D Q61H IC50

Structure (SMILES)	IC50 [µM]
Cc1cccc(OCC(=O)Nc2nnc(-c3ccccn3)[nH]2)c1 [drawing 2555]	5 to 10
